In patent publication US20240409585A1, “MACROCYCLIC IMMUNOMODULATORS” (priority 2021, published 2024):
Numbered stars: 1 amine (or outer) side, 2 acyl side, 3 side chain; on linkers, the order of the positions; unused ones are H or OH. Bridge positions count the residues as written; N and C are the ends. Square brackets hold non-standard residues; d marks the D form. Peptide text beside a SMILES is read from it. * marks the point of attachment. ξ: configuration not given here. X29 = O=C([C@H](Cc1ccc(-c2cc(F)cc(F)c2)cc1)N[*:1])[*:2]; Phe(4-(3-Py)) = N[C@@H](Cc1ccc(-c2cccnc2)cc1)C(=O)O; Phe(4-COOH) = N[C@@H](Cc1ccc(C(=O)O)cc1)C(=O)O; Asp(3,3-Me2) = CC(C)(C(=O)O)[C@H](N)C(=O)O; Bip = N[C@@H](Cc1ccc(-c2ccccc2)cc1)C(=O)O; Phe(3-Me) = Cc1cccc(C[C@H](N)C(=O)O)c1; 4Pal = N[C@@H](Cc1ccncc1)C(=O)O; Cha = N[C@@H](CC1CCCCC1)C(=O)O; Cit = NC(=O)NCCC[C@H](N)C(=O)O; Ile(3ξ) = CCC(C)[C@H](N)C(=O)O; Thr(3ξ) = CC(O)[C@H](N)C(=O)O; Carboxymethyl = O=C(O)C*; NMeA = CN[C@@H](C)C(=O)O; Nle = CCCC[C@H](N)C(=O)O; Dab = NCC[C@H](N)C(=O)O; Dap = NC[C@H](N)C(=O)O

Target: T1, PE-labeled human PD-L1-Ig binding to Jurkat cell line over-expressing human PD-1 (Jurkat-PD-1) (Homo sapiens, UniProt Q15116)
T1 construct: expressed in transfected cells; host or cells: Jurkat
T1 sequence (Q15116 25-288): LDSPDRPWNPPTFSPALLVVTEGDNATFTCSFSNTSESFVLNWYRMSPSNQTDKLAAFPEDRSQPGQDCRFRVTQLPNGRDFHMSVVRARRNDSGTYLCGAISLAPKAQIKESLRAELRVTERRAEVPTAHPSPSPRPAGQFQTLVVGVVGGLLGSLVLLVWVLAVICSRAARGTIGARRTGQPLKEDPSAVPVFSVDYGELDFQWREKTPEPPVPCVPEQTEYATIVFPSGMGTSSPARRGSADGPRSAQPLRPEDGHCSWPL
Assay: Jurkat-PD-1 Cell Binding High-Content Screening Assay (CBA): Method 1
Conditions: Jurkat-hPD-1 cells, PE-labeled PD-L1-Ig 20 nM final; read-out: Jurkat HPDL1 PD1 IC50 (uM) (Method 1)

SMILES	IC50
CCCC[C@@H]1NC(=O)[C@H](CCCNC(=N)N)NC(=O)[C@@H](CC(C)C)NC(=O)[C@H](C)N(C)C(=O)[C@H](CCCNC(N)=O)NC(=O)[C@H](Cc2ccc(-c3ccccc3)cc2)NC(=O)[C@H](C(C)C)NC(=O)[C@H](Cc2c[nH]c3ccccc23)NC(=O)[C@H](CC(=O)O)NC(=O)[C@H](Cc2ccc(O)cc2)NC(=O)[C@H](CC(N)=O)NC(=O)CSC[C@@H](C(=O)N[C@@H](C)C(N)=O)NC(=O)[C@H]([C@@H](C)O)NC(=O)[C@H](C(C)C)NC1=O [Compound 1285] ({CH2CO}-NYDWV[Bip][Cit][NMeA][dL]R[Nle]VTCA-NH2; thioether N-14)	0.05 µM
CC(C)C[C@@H]1NC(=O)[C@H](CCCCN)NC(=O)[C@@H](CC(C)C)NC(=O)[C@H](C)N(C)C(=O)[C@H](C(C)C)NC(=O)[C@H](Cc2ccc(-c3ccccc3)cc2)NC(=O)[C@H](C(C)C)NC(=O)[C@H](Cc2c[nH]c3ccccc23)NC(=O)[C@H](CC(=O)O)NC(=O)[C@H](Cc2ccc(O)cc2)NC(=O)[C@H](CC(N)=O)NC(=O)CSC[C@@H](C(=O)N[C@@H](C)C(N)=O)NC(=O)[C@H]([C@@H](C)O)NC(=O)[C@H](C(C)C)NC1=O [Compound 1299] ({CH2CO}-NYDWV[Bip]V[NMeA][dL]KLVTCA-NH2; thioether N-14)	0.02 µM
CCC(C)[C@@H]1NC(=O)[C@H](Cc2ccc(-c3ccccc3)cc2)NC(=O)[C@H](CCC(=O)O)NC(=O)[C@H](Cc2c[nH]c3ccccc23)NC(=O)[C@H](CC(N)=O)NC(=O)[C@H](Cc2ccc(O)cc2)NC(=O)[C@H](Cc2ccncc2)NC(=O)CSC[C@@H](C(=O)N[C@@H](C)C(N)=O)NC(=O)[C@H](C(C)O)NC(=O)[C@H](CCN)NC(=O)[C@H](CC(C)C)NC(=O)[C@H](CC(N)=O)NC(=O)[C@@H](CC(C)C)NC(=O)[C@H](C)N(C)C1=O (stereo partly drawn) [Compound 2059] ({CH2CO}-[4Pal]YNWE[Bip][Ile(3ξ)][NMeA][dL]NL[Dab][Thr(3ξ)]CA-NH2; thioether N-14)	0.74 µM
CC(C)C[C@@H]1NC(=O)[C@H](CCCNC(=N)N)NC(=O)[C@@H](CC(C)C)NC(=O)[C@H](C)N(C)C(=O)[C@H](CCCNC(=N)N)NC(=O)[C@H](Cc2ccc(-c3cccnc3)cc2)NC(=O)[C@H](C(C)C)NC(=O)[C@H](Cc2c[nH]c3ccccc23)NC(=O)[C@H](CC(=O)O)NC(=O)[C@H](Cc2ccc(O)cc2)NC(=O)[C@H](Cc2ccccc2)NC(=O)CSC[C@@H](C(=O)N[C@@H](C)C(N)=O)NC(=O)[C@H]([C@@H](C)O)NC(=O)[C@H](C(C)C)NC1=O [Compound 1096] ({CH2CO}-FYDWV[Phe(4-(3-Py))]R[NMeA][dL]RLVTCA-NH2; thioether N-14)	0.29 µM
CC(C)C[C@H]1NC(=O)[C@H](C)N(C)C(=O)[C@H](CCCNC(N)=O)NC(=O)[C@H](Cc2ccc(-c3ccccc3)cc2)NC(=O)[C@H](C(C)C)NC(=O)[C@H](Cc2c[nH]c3ccccc23)NC(=O)[C@H](CC(=O)O)NC(=O)[C@H](Cc2ccc(O)cc2)NC(=O)[C@H](Cc2ccccc2)NC(=O)CSC[C@@H](C(=O)N[C@@H](C)C(N)=O)NC(=O)[C@H]([C@@H](C)O)NC(=O)[C@H](C(C)C)NC(=O)[C@H](CC2CCCCC2)NC(=O)[C@H](CCCNC(=N)N)NC1=O [Compound 1505] ({CH2CO}-FYDWV[Bip][Cit][NMeA][dL]R[Cha]VTCA-NH2; thioether N-14)	0.02 µM
Cc1cccc(C[C@@H]2NC(=O)[C@H](CC(=O)O)NC(=O)[C@H](Cc3ccc(OCC(=O)O)cc3)NC(=O)[C@H](CCN)NC(=O)CSC[C@@H](C(=O)N[C@@H](CCN)C(N)=O)NC(=O)[C@H](CO)NC(=O)[C@H](C(C)(C)C(=O)O)NC(=O)[C@H](CC3CCCCC3)NC(=O)[C@H](CCN)NC(=O)[C@@H](CC(C)C)NC(=O)[C@H](C)N(C)C(=O)[C@H](Cc3ccc(OCC(=O)O)cc3)NC(=O)[C@H](Cc3ccc(-c4ccccc4)cc3)NC(=O)[C@H](Cc3ccc(OCC(=O)O)cc3)NC2=O)c1 [Compound 1848] ({CH2CO}-[Dab]Y(Carboxymethyl)D[Phe(3-Me)]Y(Carboxymethyl)[Bip]Y(Carboxymethyl)[NMeA][dL][Dab][Cha][Asp(3,3-Me2)]SC[Dab]-NH2; thioether N-14)	0.06 µM
CCC(C)[C@@H]1NC(=O)[C@H](Cc2ccc(-c3ccccc3)cc2)NC(=O)[C@H](CC(C)C)NC(=O)[C@H](Cc2c[nH]c3ccccc23)NC(=O)[C@H](CC(=O)O)NC(=O)[C@H](Cc2ccc(C(=O)O)cc2)NC(=O)[C@H](Cc2ccc(OCC(=O)O)cc2)NC(=O)CSC[C@@H](C(=O)N[C@@H](CC(N)=O)C(N)=O)NC(=O)[C@H](CCC(=O)O)NC(=O)[C@H](C(C)C)NC(=O)[C@H](CC2CCCCC2)NC(=O)[C@H](CCN)NC(=O)[C@@H](CC(C)C)NC(=O)[C@H](C)N(C)C1=O (stereo partly drawn) [Compound 1921] ({CH2CO}-Y(Carboxymethyl)[Phe(4-COOH)]DWL[Bip][Ile(3ξ)][NMeA][dL][Dab][Cha]VECN-NH2; thioether N-14)	0.01 µM
Cc1cccc(C[C@@H]2NC(=O)[C@H](CC(=O)O)NC(=O)[C@H](Cc3ccc(OCC(=O)O)cc3)NC(=O)[C@H](CN)NC(=O)CSC[C@@H](C(N)=O)NC(=O)[C@H](CO)NC(=O)[C@H](C(C)C)NC(=O)[C@H](CC(C)C)NC(=O)[C@H](CC(N)=O)NC(=O)[C@@H](CC(C)C)NC(=O)[C@H](C)N(C)C(=O)[C@H](CCCNC(N)=O)NC(=O)[C@H](Cc3ccc(-c4ccccc4)cc3)NC(=O)[C@H](CC(C)C)NC2=O)c1 [Compound 1644] ({CH2CO}-[Dap]Y(Carboxymethyl)D[Phe(3-Me)]L[Bip][Cit][NMeA][dL]NLVSC-NH2; thioether N-14)	0.06 µM
CC(C)C[C@@H]1NC(=O)[C@H](Cc2c[nH]c3ccccc23)NC(=O)[C@H](CC(=O)O)NC(=O)[C@H](Cc2ccc(OCC(=O)O)cc2)NC(=O)[C@H](C(C)O)NC(=O)CSC[C@@H](C(N)=O)NC(=O)[C@H](CO)NC(=O)[C@H](C(C)C)NC(=O)[C@H](CC2CCCCC2)NC(=O)[C@H](Cc2cnc[nH]2)NC(=O)[C@@H](CC(C)C)NC(=O)[C@H](C)N(C)C(=O)[C@H](C(C)C)NC(=O)[C@H](Cc2ccc(-c3ccccc3)cc2)NC1=O (stereo partly drawn) [Compound 2253] ({CH2CO}-[Thr(3ξ)]Y(Carboxymethyl)DWL[Bip]V[NMeA][dL]H[Cha]VSC-NH2; thioether N-14)	0.04 µM
CC(C)C[C@@H]1NC(=O)[C@H](CCCNC(=N)N)NC(=O)[C@@H](CC(C)C)NC(=O)[C@H](C)N(C)C(=O)[C@H](CCC(=O)O)NC(=O)[C@H](Cc2ccc(-c3ccccc3)cc2)NC(=O)[C@H](C(C)C)NC(=O)[C@H](Cc2c[nH]c3ccccc23)NC(=O)[C@H](CC(=O)O)NC(=O)[C@H](Cc2ccc(O)cc2)NC(=O)[C@H](Cc2ccccc2)NC(=O)CSC[C@@H](C(=O)N[C@@H](CCC(=O)O)C(N)=O)NC(=O)[C@H]([C@@H](C)O)NC(=O)[C@H](C(C)C)NC1=O [Compound 1135] ({CH2CO}-FYDWV[Bip]E[NMeA][dL]RLVTCE-NH2; thioether N-14)	0.14 µM
CC(C)C[C@@H]1NC(=O)[C@H](CCCNC(=N)N)NC(=O)[C@@H](CC(C)C)NC(=O)[C@H](C)N(C)C(=O)[C@H](CCCNC(=N)N)NC(=O)[C@H](Cc2ccc(-c3cc(F)cc(F)c3)cc2)NC(=O)[C@H](C(C)C)NC(=O)[C@H](Cc2c[nH]c3ccccc23)NC(=O)[C@H](CC(=O)O)NC(=O)[C@H](Cc2ccc(O)cc2)NC(=O)[C@H](Cc2ccccc2)NC(=O)CSC[C@@H](C(=O)N[C@@H](C)C(N)=O)NC(=O)[C@H]([C@@H](C)O)NC(=O)[C@H](C(C)C)NC1=O [Compound 1068] ({CH2CO}-FYDWV[X29]R[NMeA][dL]RLVTCA-NH2; thioether N-14)	0.17 µM
